Assay type in all cases: in vivo
For data set [1], the system named is Echinochloa oryzacola Vasing. Description: Test Example 1: herbicidal activity, application before weed generation in submerged conditions. The note with it: Seventeenth Table; application herbicide amount 320 g/ha. Put shortly: (§1)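 Pre-emergence water-surface application under 4 cm flooding, same day as sowing, with rice transplanted at 2.5 leaf stage. Dose given as g/ha. Plants grown at 25° C. to 30° C. and rated three weeks later on a 0 (≤5%) to 5 (≥90%) herbicidal-ratio scale.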

Another data set concerns Scirpus juncoides. The description is as above. The note with it: Seventeenth Table; application herbicide amount 320 g/ha. Put shortly: as §1
For the next data set, the system named is Monochoria vaginalis. Described as above. The note with it: Seventeenth Table; application herbicide amount 320 g/ha. The procedure, abridged: as §1
The subject of the next data set is Triticum aestivum. Description: Test Example 4: effect on crop by application to foliage (diluvial soil, plastic box). The note with it: application to foliage, 320 g/ha. Put shortly: (§2)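 Seeds sown in sterilized diluvial soil, covered ~1.5 cm, grown 14 days in greenhouse at 25° C. to 30° C. Emulsion formulation diluted in water to set rate (g/ha) and sprayed onto stems and leaves. Effect scored visually 3 weeks later on 0–5 scale (5 = ≥90% herbicidal ratio, 0 = ≤5%).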

Data set [2] concerns Beta vulgaris ssp. vulgaris. The description is as above. The note with it: application to foliage, 320 g/ha. The procedure, abridged:
as §2

The subject of another data set is Brassica campestris L. The description is as above. The conditions noted are these: application to foliage, 320 g/ha. Put shortly: as §2
In another data set the test system is Glycine max. The description is as above. The conditions noted are these: application to foliage, 320 g/ha. Put shortly:
as §2

The subject of a further data set is Zea mays. The description is as above. The note with it: application to foliage, 320 g/ha. The procedure, abridged: as §2
Data set [3] relates to directly sowed Oryza sativa. The data set is described as above. The conditions noted are these: application to foliage, 320 g/ha. Put shortly:
as §2

In data set [4] the test system is Echinochloa crus-galli var. crus-galli. Briefly: Test Example 4: herbicidal effect by application to foliage (diluvial soil, plastic box). The conditions noted are these: application to foliage, 320 g/ha. Put shortly: as §2
For another data set, the system named is Alopecurus myosuroides. The data set is described as above. The conditions noted are these: application to foliage, 320 g/ha. Put shortly: as §2
The subject of a further data set is Galium spurium. The description is as above. The conditions noted are these: application to foliage, 320 g/ha. Put shortly:
as §2

The next data set relates to Apera spica-venti. The description is as above. The conditions noted are these: application to foliage, 320 g/ha. The procedure, abridged: as §2
Another data set has as its system Avena fatua. The data set is described as above. The note with it: application to foliage, 320 g/ha. Put shortly: as §2
The subject of a further data set is Abutilon theophrasti. Described as above. The note with it: application to foliage, 320 g/ha. The procedure, abridged: as §2
A further data set concerns Veronica persica. Described as above. The conditions noted are these: application to foliage, 320 g/ha. Put shortly: as §2
The next data set has as its system Setaria viridis. The description is as above. The note with it: application to foliage, 320 g/ha. Put shortly: as §2
The next data set has as its system Chenopodium album. Described as above. The conditions noted are these: application to foliage, 320 g/ha. Put shortly: as §2
The test system of another data set is Digitaria ciliaris. Described as above. The conditions noted are these: application to foliage, 320 g/ha. Put shortly:
as §2

Another data set concerns Amaranthus retroflexus. The description is as above. The note with it: application to foliage, 320 g/ha. The procedure, abridged: as §2
A further data set deals with Stellaria media. Described as above. The note with it: application to foliage, 320 g/ha. Put shortly: as §2
Another data set concerns Lolium multiflorum Lam. The description is as above. The conditions noted are these: application to foliage, 320 g/ha. The procedure, abridged:
as §2

From patent publication US9708314B2, “Heterocyclic amide compound” (NISSAN CHEMICAL INDUSTRIES, LTD., priority 2013, dated 2017) come the findings set out here.

As to `Cc1nnc(NC(=O)c2ccc(C(F)(F)F)n3nc(C(C)C)nc23)o1` [7-001], the “A (Echinochloa oryzicola Vasing.) herbicidal ratio grade” value in [1] is listed as 0 (Herbicidal ratio of 5% or less (almost no effect)). Moreover, in the data set with Scirpus juncoides, the “B (Scirpus juncoides) herbicidal ratio grade” value is 2 (Herbicidal ratio of 20% or more and less than 40%). Besides, the “C (Monochoria vaginalis) herbicidal ratio grade” value with Monochoria vaginalis was 4 (Herbicidal ratio of 70% or more and less than 90%). Also, in the data set on Triticum aestivum, the “effect on crop, e (Triticum aestivum)” value was 0 (Herbicidal ratio of 5% or less (almost no effect)). Besides, the “effect on crop, f (Beta vulgaris ssp. vulgaris)” value in data set [2] is 0 (Herbicidal ratio of 5% or less (almost no effect)). Further, the “effect on crop, g (Brassica campestris L.)” value in the data set on Brassica campestris L. is on record as 0 (Herbicidal ratio of 5% or less (almost no effect)). In addition, the “effect on crop, c (Glycine max)” value in the data set with Glycine max is 0 (Herbicidal ratio of 5% or less (almost no effect)). In addition, the “effect on crop, b (Zea mays)” value in the data set on Zea mays is on record as 0 (Herbicidal ratio of 5% or less (almost no effect)). The “effect on crop, d (directly sowed Oryza sativa)” value in data set [3] is given as 0 (Herbicidal ratio of 5% or less (almost no effect)). The “herbicidal effect, H (Echinochloa crus-galli var. crus-galli)” value in [4] was 1 (Herbicidal ratio of 5% or more and less than 20%). In the data set with Alopecurus myosuroides, the “herbicidal effect, J (Alopecurus myosuroides)” value is 0 (Herbicidal ratio of 5% or less (almost no effect)). The “herbicidal effect, Q (Galium spurium)” value in the data set with Galium spurium is recorded as 0 (Herbicidal ratio of 5% or less (almost no effect)). For the same molecule, the “herbicidal effect, L (Apera spica-venti.)” value with Apera spica-venti. was 0 (Herbicidal ratio of 5% or less (almost no effect)). Besides, the “herbicidal effect, I (Avena fatua)” value in the data set with Avena fatua was 0 (Herbicidal ratio of 5% or less (almost no effect)). Moreover, in the data set on Abutilon theophrasti, the “herbicidal effect, M (Abutilon theophrasti)” value is 1 (Herbicidal ratio of 5% or more and less than 20%). In the data set on Veronica persica, the “herbicidal effect, R (Veronica persica)” value is on record as 0 (Herbicidal ratio of 5% or less (almost no effect)). For the same molecule, the “herbicidal effect, G (Setaria viridis)” value in the data set on Setaria viridis was 0 (Herbicidal ratio of 5% or less (almost no effect)). Further, the “herbicidal effect, O (Chenopodium album)” value in the data set with Chenopodium album is 2 (Herbicidal ratio of 20% or more and less than 40%). For the same molecule, the “herbicidal effect, F (Digitaria ciliaris)” value in the data set with Digitaria ciliaris is recorded as 0 (Herbicidal ratio of 5% or less (almost no effect)). In the data set with Amaranthus retroflexus, the “herbicidal effect, N (Amaranthus retroflexus)” value is 0 (Herbicidal ratio of 5% or less (almost no effect)). In addition, in the data set with Stellaria media, the “herbicidal effect, P (Stellaria media)” value is 1 (Herbicidal ratio of 5% or more and less than 20%). Besides, the “herbicidal effect, K (Lolium multiflorum Lam.)” value with Lolium multiflorum Lam. is recorded as 0 (Herbicidal ratio of 5% or less (almost no effect)).
